Measured values from US4711885A, “N-(N'-phenylpiperazine)-alkyl triazole compounds having anxiolytic and analgesic properties” (Adir et Compagnie, priority 1985, dated 1987).

Columns and labels:
Assay type in all cases: in vivo
[1] = system: mice; experiment: phenylbenzoquinone test according to Siegmund (analgesic activity, contractions of the abdomen); details: for ED50: Mus musculus, po, mice; for analgesic activity in the Siegmund test: in words
Description: (§1) The analgesic activity of the compounds of the present invention was studied by means of the tail-flick test according to D'Amour F. E. and Smith D. L., Journal of pharmacology and experimental therapeutics, 72, 74-79 (1941), the hot plate test according to Woolfe G. and MacDonald A. D., Journal of pharmacology and experimental therapeutics, 80, 300-307 (1944) and the phenylbenzoquinone test according to Siegmund E., Cadmus R. and Lu G, Proc. Soc. […]. Biol. Med. 95, 729-731 (1957).

[2] = system: mice; experiment: tail-flick test according to D'Amour and Smith (analgesic activity, reaction time); details: for ED50: Mus musculus, ip, mice
Description: The analgesic activity of the compounds of the present invention was studied by means of the tail-flick test according to D'Amour F. E. and Smith D. L., Journal of pharmacology and experimental therapeutics, 72, 74-79 (1941), the hot plate test according to Woolfe G. and MacDonald A. D., Journal of pharmacology and experimental therapeutics, 80, 300-307 (1944) and the phenylbenzoquinone test according to Siegmund E., Cadmus R. and Lu G, Proc. Soc. Exptle. Biol. Med. 95, 729-731 (1957).
By way of example, the following table lists the results of the analgesic effects observed in mice for several representative products of the invention:
Note: The mean effective dose (ED50) was calculated:
in the tailflick test from the percentage variations in the reaction time
(in seconds) by comparison with the control batch.

[3] = system: mice; experiment: hot plate test according to Woolfe and MacDonald (analgesic activity, licking time); details: Mus musculus, ip
Description: as §1

[4] = system: mice; experiment: four plates test according to Aron et al. (anxiolytic activity, number of shocks received); details: for % number of shocks received: mice, N = 10; for anxiolytic activity in the 4 plates test: in words
Description: (§2) The anxiolytic activity was studied, for its part, by means of the four plates test according to Aron C., Simon P., Larousse C. and Boissier J. R., Neuropharmacology, 10, 459-469, (1971), the conflict test according to Vogel J. R., Beer B., Clody D. E., Physchopharmacol.

[5] = system: rats; experiment: Mac Millan punishment test, punishment operating conditioning (anxiolytic activity, number of punished responses); details: for percentage variation in the number of punished responses: rats, N ≥ 9; for anxiolytic activity in the conflict test according to MacMillan: in words
Description: as §2, with “Physchopharmacol. 21, 1-7, (1971) and the punishment test according to Mac Millan D. E., J. Exp. Anal. Behav, 19, 133-145 (1973).” for “Physchopharmacol.”
PUNISHMENT OPERATING CONDITIONING (RATS)
PERCENTAGE VARIATION IN THE NUMBER
OF PUNISHED RESPONSES (N ≥ 9)
S = Significant modification

SMILES | ED50 [1] | ED50 [2] | ED50 [3] | % number of shocks received ([4]; 2.5 mg/kg i.p.) | % number of shocks received ([4]; 5 mg/kg i.p.) | % number of shocks received ([4]; 10 mg/kg i.p.) | % number of shocks received ([4]; 25 mg/kg i.p.) | anxiolytic activity in the 4 plates test [4] | percentage variation in the number of punished responses ([5]; 2.5 mg/kg i.p.) | percentage variation in the number of punished responses ([5]; 5 mg/kg i.p.) | percentage variation in the number of punished responses ([5]; 10 mg/kg i.p.) | percentage variation in the number of punished responses ([5]; 20 mg/kg i.p.) | activity in the tail-flick test ([2]; 50 mg/kg i.p., in words) | anxiolytic activity in the conflict test according to MacMillan [5] | analgesic activity in the Siegmund test [1]
FC(F)(F)c1cccc(N2CCN(CCCc3nnc4n3C[C@H]3CCCC[C@H]3C4)CC2)c1 (relative stereo) [Example 3, Cis-10{γ-N-[N'(metatrifluoromethylphenyl)piperazine]n-propyl}-3,3a,4,5,6,7,7a,8-octahydrotriazolo[4,3-b]isoquinoline] | 16 mg/kg | > 50 mg/kg | 19.8 mg/kg | +38% | +44% | +48% | 18% | very significant anxiolytic activity | – | – | – | – | – | – | –
Clc1cccc(N2CCN(CCc3nnc4n3[C@H]3CCCC[C@@H]3CC4)CC2)c1 (relative stereo) [Example 12] | 25.7 mg/kg | 30.7 mg/kg | 25.3 mg/kg | +38% | +15% | +20% | +2% | very significant anxiolytic activity | -33.5% | -24% | -51.3% | -75% | active | – | –
FC(F)(F)c1cccc(N2CCN(CCc3nnc4n3C[C@H]3CCCC[C@H]3C4)CC2)c1 (relative stereo) [Example 16] | 17 mg/kg | > 50 mg/kg | 24.3 mg/kg | -12% | +2% | +32% | +5% | very significant anxiolytic activity | +5.4% | +42.2% | +125.9% | -60.7% | – | very significant anxiolytic activity | –
Clc1cccc(N2CCN(CCCc3nnc4n3C[C@H]3CCCC[C@H]3C4)CC2)c1 (relative stereo) [Example 40] | 7.5 mg/kg | > 50 mg/kg | 53.9 mg/kg | – | – | – | – | – | – | – | – | – | – | – | very significant analgesic activiy
Clc1cccc(N2CCN(CCCc3nnc4n3[C@H]3CCCC[C@H]3CC4)CC2)c1 (relative stereo) [Example 42] | 11.4 mg/kg | > 50 mg/kg | – | – | – | – | – | – | – | – | – | – | – | – | –
Clc1cccc(N2CCN(CCc3nnc4n3CC3CCCCC43)CC2)c1 (stereo not drawn) [Example 2, 9-{β-N'-[N-(metachlorophenyl)piperazine]ethyl}-[7H]-2b,3,4,5,6,6a-hexahydrotriazolo[3,4-a]cyclohexa(c)pyrrole] | 8.7 mg/kg | > 50 mg/kg | > 50 mg/kg | – | – | – | – | – | – | – | – | – | – | – | very significant analgesic activiy
FC(F)(F)c1cccc(N2CCN(CCc3nnc4n3CC3CCCC43)CC2)c1 (centres unmarked) [Example 17a] | 5.82 mg/kg | > 50 mg/kg | 21.3 mg/kg | +18% | +26% | +35% | +61% | very significant anxiolytic activity | +47.8% | +33.6% | +42.6% | -70.3% | – | very significant anxiolytic activity | –
FC(F)(F)c1cccc(N2CCN(CCc3nnc4n3CC3CCCC43)CC2)c1 (centres unmarked) [Example 17b] | – | – | – | +15% | +34% | +53% | +27% | very significant anxiolytic activity | – | – | – | – | – | – | –
FC(F)(F)c1cccc(N2CCN(CCc3nnc4n3CC3CCCCC43)CC2)c1 (centres unmarked) [Example 36] | 4.3 mg/kg | > 50 mg/kg | 25 to 50 mg/kg | -12% | -4% | -4% | +39% | very significant anxiolytic activity | – | – | – | – | – | – | very significant analgesic activiy
